These results are taken from US9458437B2, “Neuroprotective peptides that inhibit interaction between palmitoyl acyl transferase zinc-finger DHHC type containing 17 (zD17) and c-jun N-terminal kinase (JNK)” (The University of British Columbia, priority 2011, dated 2016).

Experiment [1] has as its system middle cerebral artery occlusion (MCAo). As to the kind of experiment: transient MCAo in SD rats, adhesive removal test (ART). The format is in vivo, Sprague-Dawley rat. Set-up: unit not given here. The following applies: peptide given 4 h after MCAo onset.
The subject of experiment [2] is caspase-3. As to the kind of experiment: NMDA-induced caspase-3 cleavage in neurons. It is filed as cell-based, rat. To be noted: neuronal cultures.
The test system of experiment [3] is Bax and Cyt.c. As to the kind of experiment: NMDA-induced translocation of Bax and Cyt.c (mitochondria fractionation). To be noted: neuronal cultures. The format is cell-based, rat. Here is the method:
Cultured neurons were lysed on ice for 10 min in TEEN-SKM buffer containing 20 mM Tris-HCl (pH7.5), 10 mM KCl, 1.5 mM MgCl2, 1 mM EGTA, 1 mM EDTA, 1 mM DTT supplemented with the Complete Protease Inhibitor tablets. The lysates were homogenized with a 28^1/2G syringe for a total of 8 times on ice, followed by centrifugation twice at 700 g for 10 min at 4° C. The supernatant was then centrifuged at 10,000 g for 30 min at 4° C. to enrich mitochondria in the pellet. The cytosolic fraction was collected from the supernatant after further centrifugation at 100,000 g for 1 h at 4° C. 1× and 4×LB were added to the mitochondrial and cytosolic fractions, respectively. Equivalent amounts of samples were resolved by SDS-PAGE and blotted with antibodies against Cytochrome c and Bax.

The test system of experiment [4] is middle cerebral artery occlusion (MCAo). As to the kind of experiment: transient MCAo in SD rats, neurological scores. It is filed as in vivo, Sprague-Dawley rat. On the set-up: key: summed neurological score, 0 to 27.
Experiment [5] shares this test system. As to the kind of experiment: transient MCAo in SD rats, infarct volume (TTC histology). It is filed as in vivo, Sprague-Dawley rat.
Experiment [6] concerns the target zD17-JNK3 interaction (Rattus norvegicus, UniProt P49187). As to the kind of experiment: co-immunoprecipitation of zD17 with JNK3 in cortical neuronal cultures. It is filed as cell-based. On the set-up: diminished the co-immunoprecipitation of zD17 with JNK3; endogenous in cells; host or cells: primary cortical neurons of embryonic (E18-19) Wistar rat. Here is the method:
All animal experiments were approved by the Animal Care Committee of the University of British Columbia. Primary cortical cultures were prepared from Wistar rat (UBC Animal Care Centre, Vancouver, BC, Canada) brains at embryonic days 18-19. Cultures were maintained in Neurobasal medium supplemented with B27 and 0.5 mM glutamax (Invitrogen™) as described previously (Yang et al., 2009).
The protocols for protein extraction have been described previously (Yang et al., 2009). For co-immunoprecipitation, cultured cells were washed with ice-cold PBS followed by incubation with 0.5 ml Gentle Lysis Buffer (GLB) containing 25 mM Tris-HCl (pH 7.4), 2 mM EDTA, 1 mM EGTA, 10 mM NaCl, 0.5% Triton X-100 and 10% Glycerol supplemented with the Complete Protease Inhibitor Tablets (Roche Applied Science™, Indianapolis, Ind., USA) and 1 mM PMSF. Total protein concentration was determined with the BioRad™ Protein Assay kit. Lysates were first precleaned by incubating with Protein A-Sepharose beads (Roche Applied Science™) for 1 h at 4° C., followed by incubation with indicated antibodies (>16 h at 4° C.) and protein A Sepharose bead (2 h at 4° C.). Lysates of rat brain tissues were precleaned with IgG and protein A-beads. Immunoprecipitates were washed three times with GLB buffer; boiled in 2× loading buffer with 1 mM dithiothreitol (DTT) for 3 min; and analyzed with SDS-PAGE as described previously (Yang et al., 2009). The relative intensities of the bands on immunoblots were analyzed and quantified using Image J™ (NIH).

For experiment [7], the system named is cultured neurons. As to the kind of experiment: axonal development in cultured neurons (Tau-1 labelling). It is filed as cell-based, rat. Here is the method:
For biochemical studies, neurons were seeded in six-well culture plates with a density of 7.5×10^5 cells per well. For LDH assay and cell death detection, 24-well culture plates were used with a neuron density of 2.5×10^5 cells per well. Neurons of 14-17 days in vitro (DIV) were used for experiments. […] HEK 293 cells were maintained in DMEM (Invitrogen™) supplemented with 10% fetal bovine serum and 1% penicillin/streptomycin. For protein expression in cell lines, cells were transfected with Calcium Phosphate Transfection reagent (Promega™, San Luis Obispo, Calif., USA) and used 24 h later as described previously (Yang et al., 2009). The JNK inhibitor, L-JNKI, was purchased from Alexis Biochemicals™ (San Diego, Calif.). Thrombin was obtained from BIOPUR™ (Bubendorf, Switzerland). Other assay reagents without indication were obtained from Sigma™.
Cultured hippocampal neurons on glass coverslips were used for immunostaining. After treatments indicated in the text, neurons were fixed with 2% paraformaldehyde for 3 min at room temperature followed by permeabilization with ice-cold methanol for 10 min at −20° C. The coverslips were then washed three times with PBS and immunostained with appropriate antibodies dissolved in PBS for 1 h at room temperature. After washing three times with PBS, coverslips were incubated with Alexa-labeled secondary antibodies from Invitrogen for an additional 1 h. For mitochondrial detection, neuronal cultures were incubated at 37° C. for 30 min with 2 μM MitoTracker-TR (Invitrogen™). Coverslips were then fixed and mounted with ProLong Gold Antifade Reagent (Invitrogen™). Fluorescence was captured using a Zeiss Observer Z1™ microscope and all images were analyzed with ImageJ™ and processed using Adobe Photoshop™.

Experiment [8] concerns the target T1, JNK2 (Rattus norvegicus, UniProt P49186).
T1 construct: JNK is immunoprecipitated from the cell lysate; endogenous in cells; host or cells: rat primary neuronal cultures; JNK2 immunoprecipitated from lysate
As to the kind of experiment: kinase assay (KA) on JNK2 immunoprecipitated from cell lysates. To be noted: for JNK2 activity normalized to 0 h: NMDA + NIMoE. The format is cell-based. Here is the method: (§1) JNK activity was measured with an in vitro kinase assay as described elsewhere (see, for e.g.: Khatlani et al., 2007). Briefly, cell lysates were prepared and JNK was immunoprecipitated with specific antibodies. The immnoprecipitates were then resuspended in 1× kinase buffer (Cell Signaling Technology™) supplemented with 200 μM ATP and 250 μg/ml GST-c-jun (1-89), and incubated at 30° C. for 30 min. Reactions were terminated by the addition of SDS-PAGE sample buffer. Phosphorylated c-jun was resolved by SDS-PAGE and detected with anti-p-c-jun.

Experiment [9] deals with T2, JNK1 (Rattus norvegicus, UniProt P49185).
T2 construct: JNK is immunoprecipitated from the cell lysate; endogenous in cells; host or cells: rat primary neuronal cultures; JNK1 immunoprecipitated from lysate
T2 sequence (P49185 whole entry): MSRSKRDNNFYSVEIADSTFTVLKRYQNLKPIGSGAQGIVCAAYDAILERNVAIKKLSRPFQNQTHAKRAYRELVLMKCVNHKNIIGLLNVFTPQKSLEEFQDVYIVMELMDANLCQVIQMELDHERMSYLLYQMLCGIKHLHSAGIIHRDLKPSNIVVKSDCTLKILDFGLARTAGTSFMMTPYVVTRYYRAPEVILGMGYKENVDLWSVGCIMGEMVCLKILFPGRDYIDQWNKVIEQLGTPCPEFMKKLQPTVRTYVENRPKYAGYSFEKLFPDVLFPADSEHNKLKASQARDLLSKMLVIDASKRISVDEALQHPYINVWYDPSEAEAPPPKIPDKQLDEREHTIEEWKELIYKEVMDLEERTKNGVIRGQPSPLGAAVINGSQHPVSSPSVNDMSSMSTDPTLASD
As to the kind of experiment: kinase assay (KA) on JNK1 immunoprecipitated from cell lysates. It is filed as cell-based. To be noted: for JNK1 activity normalized to 0 h: NMDA + NIMoE. Here is the method:
as §1

The mark [10] stands for this setting: peptide given 4 h after MCAo onset, day-1.
The mark [11] stands for this setting: peptide given 4 h after MCAo onset, day-3.
Setting [12] is: peptide given 4 h after MCAo onset, day-7.
Setting [13] is: peptide given 4 h after MCAo onset, day-14.

zD17-JNK3 interaction, sequence (P49187 whole entry): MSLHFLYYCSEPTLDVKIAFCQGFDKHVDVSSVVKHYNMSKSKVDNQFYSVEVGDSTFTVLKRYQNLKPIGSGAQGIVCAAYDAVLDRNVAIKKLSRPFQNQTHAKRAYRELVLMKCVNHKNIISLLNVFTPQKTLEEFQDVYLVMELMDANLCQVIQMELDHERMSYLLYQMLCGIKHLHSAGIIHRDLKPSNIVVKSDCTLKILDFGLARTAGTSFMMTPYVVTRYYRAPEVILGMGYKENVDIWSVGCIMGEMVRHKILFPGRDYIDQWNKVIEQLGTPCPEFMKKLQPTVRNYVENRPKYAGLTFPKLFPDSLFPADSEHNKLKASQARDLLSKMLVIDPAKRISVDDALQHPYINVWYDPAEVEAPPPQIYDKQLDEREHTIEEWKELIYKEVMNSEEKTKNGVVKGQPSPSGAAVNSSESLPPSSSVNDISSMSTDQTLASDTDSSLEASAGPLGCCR

For the sequence “WAAYRTHSVD (listed as Homo sapiens) [NIMoEsh, shorter 10mer of NIMoE, primarily the loop region of motif-E (zD17 196-205)]”, the ART in [1] (day-1) is listed as 52.57±6.82; in experiment [1] (day-3), 73.86±9.63; in experiment [1] (day-7), 94.86±7.33; in [1] (day-14), 101.43±3.35. Also, the “NMDA-induced caspase-3 cleavage” value in experiment [2] was “effectively blocked”. In experiment [3], the “NMDA-induced translocation of Bax and Cyt.c” value was “inhibited”. In addition, the neurological scores worked out at 8.50±0.75 in experiment [4] (22 h after onset of MCAo, injection +2 h); 11.20±1.49 in [4] (22 h after onset of MCAo, injection +4 h); 8.00±0.72 in [4] (22 h after onset of MCAo, injection −0.5 h, scale 0 to 27); 11.43±1.96 in experiment [4] (setting [10]); 5.86±1.14 in [4] (setting [11]); 1.71±0.47 in [4] (setting [12]). In experiment [4] (setting [13]), this sequence gave a neurological scores of 0.85±0.34. Moreover, the “infarct volume compared with non-treated, saline-treated and scramble peptide-treated groups” value in experiment [5] (post-surgical interventions at 2 h or 4 h) is listed as “effective protection for the ischemic brain”. Besides, the total infarct volume is 41.95±8.22 mm^3 in [5] (single i.v. injection +2 h after MCAo onset); 78.74±28.50 mm^3 in experiment [5] (single i.v. injection +4 h after MCAo onset); 43.43±9.82 mm^3 in experiment [5] (single i.v. injection −0.5 h (before MCAo onset), control 240.70±35.67). Moreover, the “reduction of total infarct size” value in experiment [5] (single intravenous injection 30 min before MCAo) is “about 80%”.

“HRYRWLTDLLSMVTTPAAPM (NIMoEscr scrambled NIMoE) [negative control peptide resulting from a scrambled NIMoE, reference compound]”: the ART is on record as 12.63±3.14 in experiment [1] (day-1), 34.13±6.88 in [1] (day-3), 59.13±5.67 in experiment [1] (day-7) and 81.88±4.44 in experiment [1] (day-14). For the same sequence, the neurological scores is recorded as 18.60±1.24 in [4] (22 h after onset of MCAo, scrambled control peptide group); 19.25±0.80 in experiment [4] (setting [10]); 13.63±1.03 in [4] (setting [11]); 7.13±0.58 in [4] (setting [12]); 4.38±0.50 in [4] (setting [13]). For the same sequence, in [5] (scrambled control peptide group, injection time not given), the total infarct volume came out at 212.60±37.6 mm^3. The “enhancement of the zD17-JNK3 interaction induced by NMDA/excitotoxicity” value in experiment [6] is given as “did not selectively block enhancement”.

Regarding “MTPLMWAAYRTHSVDPTRLL (listed as Homo sapiens) [NIMoE, peptide comprising motif-E of zD17, fused to the cell-membrane transduction domain of HIV-1 Tat for cell experiments]”, the “NMDA-induced caspase-3 cleavage” value in experiment [2] is “effectively blocked”. Moreover, the “NMDA-induced translocation of Bax and Cyt.c” value in experiment [3] is reported as “inhibited”. In [7] (NIMoE incubation, control 160.0±8.9), the “axon extension (length)” value was determined as 161.1±13.6. Further, in experiment [7] (chronic incubation in cultured neurons), the “effect on axon initiation and extension” value is reported as “did not affect”. Also, in experiment [7] (incubation of cultured neurons, Tau-1 marker), the “axon initiation rate normalized to control” value is listed as 98.6±0.2%. Besides, the “JNK2 activity normalized to 0 h” value is recorded as 103.7±5.0% in [8] (0.5 h) and 90.9±10.9% in experiment [8] (1 h). Besides, in experiment [8] (NMDA, neuronal cultures), the “enhancement of JNK2 activity” value is listed as “eliminated the enhancement”. In experiment [6], the “enhancement of the zD17-JNK3 interaction induced by NMDA/excitotoxicity” value was “selectively blocked the enhancement”. The “zD17-JNK3 interaction (co-immunoprecipitation), baseline” value in experiment [6] (no NMDA) was “no effect”. In addition, the “JNK1 activity normalized to 0 h” value in [9] (0.5 h) worked out at 104.3±2.6%; in experiment [9] (1 h) it was 168.5±3.3%. For the same sequence, in [9] (NMDA, neuronal cultures), the “normal activation of JNK1” value is reported as “did not inhibit”.
